Test results as given in patent publication US20040181343A1, “Computer program products and systems for rapidly changing the solution environment around sensors” (Cellectricon AB, priority 2002, published 2004).

System: PC-12 cell
Details: cell-scanning speed 250 μm/s
Excerpt: The flow rate was 3.24 mm/s and the cell scanning speed was 250 μm/s.
In these applications, as discussed above, both the flow rate of the fluids exiting the microchannels and the scan rate of the patch clamped cell are important. […] The width of each microchannel is 100 μm, the thickness is 50 μm, and the intermicrochannel spacing is 25 μm. The procedure used for fabricating the microchannels and for patch clamping are identical to that described in Example 2 (see above). The patch clamped cell used was a PC-12 cell, which was placed between 10 to 20 micrometers away from the outlets of the microchannels. Microchannels 1, 3, 5 and 7 were filled with PBS buffer, while microchannels 2, 4 and 6 were filled with acetylcholine. The flow rate of the fluid streams was 6.8 mm/s.
In a 7-microchannel structure, microchannels 1, 3, 5 and 7 were filled with PBS buffer, whereas microchannels 2, 4, and 6 were filled with 1 μM, 12 μM, and 200 μM nicotine, respectively. The flow rate used was […] and the cell-scanning speed was 250 μm/s. The patch-clamped cell was placed between 10 to 20 μm away from the outlet of the microchannel.

For CN1CCCC1c1cccnc1 (stereo not drawn) [nicotine], the Whole-cell current response (1 μM nicotine) was “barely discernible”, the Whole-cell current peak (12 μM nicotine) was “detected with good signal-to-noise ratio” and the “Current peak at 200 μM relative to the peak for 12 μM” value (200 μM nicotine versus 12 μM) was 15 to 20 times.
